This experiment deals with CEM cells HIV-1 protection, formazan growth assay. Kind of experiment: NCI AIDS Antiviral Assay. The following applies: for IC50: measured here: growth of uninfected CEM cells. The procedure, abridged:
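Category rules: moderately active means at least 50% protection on retest, and confirmed active means 100% protection reproducibly. The underlying data came from a formazan growth assay in HIV-1-infected CEM cells.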

Several values for one entry are separate records, joined by “and”; a condition that tells them apart may be missing. Equal values may be shown once. Activity calls are given as the source filed them.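 Rule for the calls: active = compounds giving half or more protection of infected cells from virus-caused growth loss, again on retest; inactive = the rest.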

Consider `CN(C)CC1CCCCC(CN(C)C)C1=O` (centres undefined), for which the result was inactive.

Consider `CCC1=C(CC)C1(C#N)[N+](=O)[O-]`, for which the EC50 is above 251 µM and the IC50 was above 251 µM.

As for `N#C/C(=C\c1ccccc1)S(=O)(=O)/C(C#N)=C/c1ccc(O)c(O)c1`, the EC50 is above 200 µM and the IC50 amounted to 29.5 µM.

On to `CC(C)=CCC/C(C)=C/COC(=O)N(c1ccccc1)c1ccccc1`, for which the EC50 is above 200 µM and the IC50 is above 200 µM.

For `C=CCn1c(=O)c(-c2ccccc2)c(O)c2ccccc21`, the EC50 is above 200 µM and the IC50 is above 200 µM.

Regarding `O=C1CC(c2ccc(O)cc2)Oc2cc(O)cc(O)c21` (centres undefined), the EC50 was above 200 µM; the IC50 was > 100 µM and 87.1 µM.

For `CCOC(=O)c1ccc(C(=O)/C(C(=O)OC(C)(C)C)=C2\CCCN2C)n1C`, the EC50 is 89.1 µM and the IC50 is 141 µM.

Turning to `O=C1N[C@H]2c3c(Cl)sc(Cl)c3[C@@H](O)[C@H]2O1`, the EC50 is above 200 µM and the IC50 is above 200 µM.

As for `CN1C(=O)C(O)C[C@@H]1c1ccc(F)cc1` (some centres undefined), the outcome was inactive.

For the molecule `O=[N+]([O-])C(C=C(n1nnc2ccccc21)n1nnc2ccccc21)=C(n1nnc2ccccc21)n1nnc2ccccc21`, the EC50 was above 200 µM and the IC50 is above 200 µM.

For `CCOC(=O)C(NC(=O)NC(C(=O)OCC)C(=O)OCC)C(=O)OCC`, the EC50 was above 200 µM and the IC50 was above 200 µM.

Consider `COc1cc(Nc2c3ccccc3nc3ccccc23)ccc1NS(C)(=O)=O`, for which the EC50 is above 200 µM and the IC50 amounted to 2.4 µM.

As for `O=C(O)c1cc2cc(Br)ccc2cc1O`, the EC50 is above 200 µM and the IC50 came to 85.1 µM.

For the molecule `O=C(O)c1cccc(/C=C/c2ccc(N=Nc3cc(S(=O)(=O)O)c4cccnc4c3O)cc2C(=O)O)c1`, the EC50 is 166 µM and the IC50 was above 200 µM.

In the case of `Cc1n[nH]c2ccccc2c1=O`, the EC50 was above 676 µM and the IC50 was 490 µM.

Consider `C1SSCC2=C1CSSC2`, for which the EC50 was above 13.2 µM and the 50% inhibitory concentration (IC50) is above 13.2 µM.

Take `Cc1ccc2c(n1)C(N1CCCC1)=CC(=O)C2=O`: the result was inactive.

Take `Cc1cnc2c(Nc3ccc(Cl)cc3)cc(N)nc2n1`: the EC50 is above 120 µM and the IC50 was 4.47 µM.

As to `COCCCNC(=O)CC(=O)NCCCOC`, the EC50 was above 1000 µM and the IC50 was above 1000 µM.

With `CC(=O)C(=[N+]=[N-])C(=O)OCCOC(=O)C(=[N+]=[N-])C(C)=O`, the EC50 is above 200 µM and the IC50 was above 200 µM.

Take `Cn1c(=O)c2c(nc3n(CCCCl)c(=O)ccn23)n(C)c1=O`: the EC50 was above 200 µM and the IC50 was above 100 µM.

As to `Nc1nc2c(ccc3ccccc32)[nH]1`, the result was inactive.

Regarding `Cn1c(=O)oc2cc(C(O)CN3CCN(Cc4ccc5c(c4)OCO5)CC3)ccc21` (centres undefined), the EC50 is above 200 µM and the half-maximal inhibitory concentration (IC50) was above 200 µM.

Take `C[C@]1(O)CC[C@H]2[C@@H]3CCC4=CC(=O)CC[C@]4(C)[C@@]3(Cl)[C@@H](Cl)C[C@@]21C`: the EC50 is above 200 µM and the IC50 was above 200 µM.

With `CC(C)=CCC12Cc3ccc(O)cc3C(C(C)CN1)C2C` (centres undefined), the EC50 was above 200 µM and the IC50 is above 200 µM.

Turning to `CNc1ccc([N+](=O)[O-])cc1C(=O)N1CCC[C@H]1CO`, the EC50 is above 200 µM and the IC50 is above 200 µM.

For `O=P(Nc1cccc(Cl)c1)(Oc1ccccc1)N(CCCl)CCCl` (centres undefined), the EC50 is above 17.8 µM and the IC50 came out at 6.46 µM.

Consider `CCOC(=O)C1CCC2c3[nH]c4ccccc4c3CCN2C1=O` (centres undefined), for which the EC50 was above 115 µM and the IC50 was above 115 µM.

In the case of `CCN(CC)c1ccc2nc3c4ccccc4c(=O)cc-3n(-c3ccccc3)c2c1`, the EC50 was above 200 µM and the 50% inhibitory concentration (IC50) turned out to be 4.57 µM.

As for `CCN1C(=O)CS/C1=N/NC(=O)C(O)(c1ccccc1)C1C=CC=CC1` (centres undefined), the EC50 was above 200 µM and the IC50 is above 200 µM.

As to `CCC(C)N(CCN)C(=O)c1cc2ccccc2c(-c2ccccc2Cl)n1` (centres undefined), the result was inactive.

Consider `CCOC(=O)c1cn(-c2ccc([N+](=O)[O-])cc2)c(=S)n2c1nc1ccccc12`, for which the EC50 is above 200 µM and the IC50 came out at 9.33 µM.

`CCCCn1cnc2ccc3[nH]c(C)nc3c2c1=O`: the EC50 is above 759 µM and the 50% inhibitory concentration (IC50) came to 55 µM.

On to `Cc1ccc(Nc2nc(-c3ccc(-c4ccc([N+](=O)[O-])cc4)o3)cs2)cc1`, for which the EC50 was above 10 µM and the IC50 is above 10 µM.

With `CCN(CC)Cc1cc(O)c(CN(CC)CC)cc1O`, the EC50 was above 891 µM and the concentration for half-maximal inhibition (IC50) turned out to be 72.4 µM.

Turning to `CCOC(=O)/C(=C\c1ccc(O)c(OC)c1)C(=O)c1ccccc1`, the EC50 is above 288 µM and the IC50 is 41.7 µM.

As to `COC(=O)c1cc2cccc(CS(=O)(=O)O)c2cc1O`, the EC50 was above 200 µM and the IC50 was 21.4 µM.

As for `CCC(C#N)NCc1cccc(CNC(C#N)CC)c1` (centres undefined), the EC50 was above 200 µM and the IC50 is above 200 µM.

Regarding `CC1CN(C2C=CC(=O)CC2)C(=O)NC1=O` (centres undefined), the EC50 is above 1120 µM and the IC50 turned out to be 7.76 µM.

Regarding `CN=C(NC(=S)N(C)C)N(C)C`, the result was inactive.

`O=C1NC(=S)S/C1=C\c1cccs1`: the EC50 was above 60.3 µM and the IC50 is above 60.3 µM.

Turning to `COC(=O)[C@H](C)NC(=O)[C@H](CSC)N1C(=O)N[C@@H](C(C)C)C1=O`, the EC50 was above 200 µM and the half-inhibitory concentration (IC50) is 24.5 µM.

As to `Cc1cn(C2CC(SCCO)C(CO)O2)c(=O)[nH]c1=O` (centres undefined), the EC50 was above 200 µM and the IC50 was above 200 µM.

For the molecule `CC[CH2][Sn]([CH2]CC)([O]C(=O)Cc1ccc(F)cc1)[O][Sn]([CH2]CC)([CH2]CC)[O]C(=O)Cc1ccc(F)cc1`, the EC50 was above 5.13 µM and the IC50 came to 3.24 µM.

On to `CCCCCCCCCCCC1OC[C@H]2O[C@@H](n3cc(C)c(=O)[nH]c3=O)C[C@H]2N1O` (some centres undefined), for which the EC50 is above 200 µM and the IC50 turned out to be 21.9 µM.

Take `c1csc([As](O[As](c2cccs2)c2cccs2)c2cccs2)c1`: the EC50 was above 0.2 µM and the IC50 stood at 0.102 µM.

For the molecule `Cc1ccccc1NP1(=O)OCCCN1Cc1ccc(Cl)c(Cl)c1` (centres undefined), the result was inactive.

As for `O=C(NNC(=S)Nc1ccc(Cl)cc1)C12CC3CC(CC(C3)C1)C2`, the EC50 is above 200 µM and the IC50 was 6.61 µM.

`Clc1ccc(Nc2nnc(CNc3ccc(-c4nnc(Nc5ccc(Cl)cc5)s4)cc3)s2)cc1`: the EC50 is above 200 µM and the IC50 is 13.2 µM.

Consider `CCOC(=O)N1c2c(ccn2C)-c2ccn(C)c2N1C(=O)OCC`, for which the EC50 was above 15.1 µM and the IC50 amounted to 5.89 µM.

For the molecule `COc1ccc2c(c1)CN([C@@H](C)[C@H]1CC[C@H]3[C@@H]4CC[C@H]5C[C@@H](O)CC[C@]5(C)[C@H]4CC[C@]13C)CO2`, the EC50 was above 61.7 µM and the IC50 was found to be 3.16 µM.

With `COc1ccc(OC(C)C(=O)O)c2c(=O)ccccc12` (centres undefined), the result was inactive.

Turning to `CC(=O)Nc1ccc(C(=O)NN2C(=O)C(Cl)C2/C=C/c2ccccc2)cc1` (centres undefined), the half-maximal effective concentration (EC50) is 135 µM and the IC50 is 166 µM.

Regarding `COc1cc2c(cc1OC)C1Cc3cc(OC)c(OC)cc3C(C2)N1C`, the EC50 is above 708 µM; the IC50 was 52.5 µM and 64.6 µM.

As for `CN(C)c1ccc(/C=C/c2ccnc3c(O)cccc23)cc1`, the EC50 is above 18.2 µM and the IC50 came to 1.05 µM.

As for `CC(=O)OC1CC2C(CCC3(C)C(OC(C)=O)CCC23)c2c(OS(=O)(=O)c3ccccc3)ccc(C)c21` (centres undefined), the EC50 was above 100 µM and the concentration for half-maximal inhibition (IC50) was above 100 µM.

`CN(O)C(=O)c1cccc(Cl)c1`: the EC50 was above 200 µM and the IC50 came out at 112 µM.

In the case of `CN(C)C(=O)OCOP(=O)(OCOC(=O)N(C)C)OCC1CCC(n2ccc(=O)[nH]c2=O)O1` (centres undefined), the EC50 is above 200 µM and the half-inhibitory concentration (IC50) is 93.3 µM.

Turning to `O=[N+]([O-])c1ccccc1S(=O)(=O)c1ccccc1`, the EC50 is 18.2 µM and the IC50 worked out at 170 µM.

For `CCOc1cc2c(cc1O)/C(=N/NS(=O)(=O)c1ccc(C)cc1)C[C@@H]1[C@@H]2CC[C@]2(C)[C@@H](O)CC[C@@H]12`, the EC50 is above 200 µM and the IC50 turned out to be 0.229 µM.

For `Cc1nc2ccc(Br)cc2c(=O)n1-c1ccc(NC2OCC(O)C(O)C2O)cc1` (centres undefined), the EC50 was above 200 µM; the IC50 was 20.9 µM and 138 µM.

Consider `CCOC1CCN(C(=O)c2ccccc2)O1` (centres undefined), for which the EC50 is above 200 µM and the IC50 was above 200 µM.

As to `CC1=C2C3OC(=O)C(C)C3C(O)C[C@@]2(C)C(=O)CC1` (some centres undefined), the result was inactive.

Turning to `CC(=O)N(C(=O)CC(=O)N/N=C\c1ccc(Br)c(N(CCC#N)CCC#N)c1)c1ccc(Cl)cc1`, the EC50 was above 200 µM and the IC50 was above 200 µM.

Consider `COc1ccc(C2=C(N)c3c(Cl)cccc3C2=O)cc1`, for which the EC50 was above 200 µM and the IC50 is 155 µM.

As to `COc1ccc2c3c([nH]c2c1[N+](=O)[O-])C(C)=NCC3`, the outcome was inactive.

In the case of `CCc1ccccc1N1C(=O)C(=O)C(c2nc3ccccc3s2)C(=O)C1=O`, the EC50 is above 178 µM and the IC50 was 93.3 µM.

Turning to `CC(C)=CCC[C@@H](C)C1=C(O)C(Nc2ccccc2F)=C(C)C(=O)C1=O`, the EC50 is above 200 µM and the IC50 stood at 15.8 µM.

In the case of `C=C1CC(CN2CCC(=O)NC2=O)(c2ccccc2)OC1=O` (centres undefined), the EC50 is above 200 µM and the IC50 was determined as 1.48 µM.

With `CCCCOC(=O)c1cc(C(=CCC[C@H]2CC[C@@]3(C)[C@@H](CC[C@@H]4[C@@H]3CC[C@]3(C)[C@@H](C(C)CCCC(C)C)CC[C@@H]43)C2)c2cc(Cl)c(O)c(C(=O)OCCCC)c2)cc(Cl)c1O` (some centres undefined), the EC50 was above 100 µM and the IC50 was above 100 µM.

For `CCOC(OC1=C(C#N)CCC1)C(CC)[Se]c1ccccc1` (centres undefined), the EC50 was above 70.8 µM and the IC50 was 52.5 µM.

Turning to `COc1ccc(C2N(c3ccc(F)c([N+](=O)[O-])c3)C(=O)N3C(c4ccc(OC)cc4)N(c4ccc(F)c([N+](=O)[O-])c4)C(=O)N23)cc1` (centres undefined), the EC50 was above 200 µM and the IC50 is 33.9 µM.

(Values after PubChem BioAssay AID179 (DTP/NCI, 2004).)
